Active and inactive are the calls of the source. The calls are words filed in the database; no cut-off is given here.
Each compound was assayed against T1, Prostaglandin G/H synthase 1 (Ovis aries, UniProt P05979) (assay: Inhibitory activity (RA1) against Prostaglandin G/H synthase 1 was calculated relative to aspirin).
T1 sequence (P05979 whole entry): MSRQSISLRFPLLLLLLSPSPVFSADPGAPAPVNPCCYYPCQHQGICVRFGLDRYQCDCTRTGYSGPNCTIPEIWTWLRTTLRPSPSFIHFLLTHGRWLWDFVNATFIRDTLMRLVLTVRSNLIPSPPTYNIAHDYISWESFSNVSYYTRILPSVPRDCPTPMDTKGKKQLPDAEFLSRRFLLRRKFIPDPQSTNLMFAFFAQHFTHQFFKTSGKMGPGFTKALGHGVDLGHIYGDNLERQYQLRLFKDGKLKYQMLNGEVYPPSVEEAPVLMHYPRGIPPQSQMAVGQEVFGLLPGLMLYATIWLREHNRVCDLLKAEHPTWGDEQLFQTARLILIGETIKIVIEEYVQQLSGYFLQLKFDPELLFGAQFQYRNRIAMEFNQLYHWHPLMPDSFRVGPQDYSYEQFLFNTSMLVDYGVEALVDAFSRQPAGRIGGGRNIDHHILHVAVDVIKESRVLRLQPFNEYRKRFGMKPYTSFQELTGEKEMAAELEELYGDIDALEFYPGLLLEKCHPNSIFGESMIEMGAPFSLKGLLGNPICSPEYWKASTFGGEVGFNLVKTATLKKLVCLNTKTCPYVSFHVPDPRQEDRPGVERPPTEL

| Structure (SMILES) | IC50 |
| --- | --- |
| C[C@]1(N2C(=O)c3ccccc3C2=O)CCC(=O)NC1=O | Not Active |

These compounds were tested against T2, Prostaglandin G/H synthase 2 (Ovis aries, UniProt P79208) (assay: Inhibitory activity (RA2) against Prostaglandin G/H synthase 2 was calculated relative to aspirin).
T2 sequence (P79208 whole entry): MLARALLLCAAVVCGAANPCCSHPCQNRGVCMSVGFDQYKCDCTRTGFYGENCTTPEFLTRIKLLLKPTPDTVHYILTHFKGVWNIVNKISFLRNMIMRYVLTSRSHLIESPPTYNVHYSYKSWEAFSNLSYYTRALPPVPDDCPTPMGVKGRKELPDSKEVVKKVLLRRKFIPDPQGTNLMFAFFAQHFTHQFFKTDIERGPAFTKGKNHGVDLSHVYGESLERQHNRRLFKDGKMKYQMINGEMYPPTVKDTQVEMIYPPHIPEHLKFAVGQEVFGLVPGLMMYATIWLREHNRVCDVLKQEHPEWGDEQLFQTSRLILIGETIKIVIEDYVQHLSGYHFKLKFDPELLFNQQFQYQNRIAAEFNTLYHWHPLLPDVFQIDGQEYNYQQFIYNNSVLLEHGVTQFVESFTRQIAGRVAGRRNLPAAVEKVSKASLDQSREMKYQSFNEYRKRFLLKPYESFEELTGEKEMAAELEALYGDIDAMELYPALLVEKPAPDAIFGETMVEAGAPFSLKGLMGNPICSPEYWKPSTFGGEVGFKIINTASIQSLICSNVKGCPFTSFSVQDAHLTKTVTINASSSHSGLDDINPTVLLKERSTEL

| Structure (SMILES) | IC50 |
| --- | --- |
| C[C@]1(N2C(=O)c3ccccc3C2=O)CCC(=O)NC1=O | Not Active |

These compounds were tested against T3, Prostaglandin G/H synthase 1 (Ovis aries) (UniProt P05979) (assay: Selective index (SI) which is the ratio of IC50 of Prostaglandin G/H synthase 1 / […]).
T3 sequence (whole entry): T1 sequence (P05979 whole entry)

| Structure (SMILES) | Ratio |
| --- | --- |
| O=C1CCN(N2C(=O)c3ccccc3C2=O)C(=O)N1 | 1.45 |
| O=C1c2ccccc2C(=O)N1c1cnc(O)nc1O | 7.69 |
| O=C1NCCCC1N1C(=O)c2ccccc2C1=O (stereo unspecified) | 1.43 |
| Cc1cc(C)nc(N2C(=O)Cc3ccccc3C2=O)n1 | 0.45 |
| COc1cc(OC)nc(N2C(=O)Cc3ccccc3C2=O)n1 | 0.38 |
| O=C1CCC(N2C(=O)c3ccccc3C2=O)C(=O)N1 (stereo unspecified) | 1.23 |
| Cc1cc(C)c(C)c(N2C(=O)c3ccccc3C2=O)c1 | 4.05 |
| COc1cc(C)nc(N2C(=O)Cc3ccccc3C2=O)n1 | 0.45 |
| Cc1cc(C)c(C)c(N2C(=O)c3ccccc3C2=O)c1C | 4.16 |
| C[C@@]1(N2C(=O)c3ccccc3C2=O)CCC(=O)NC1=O | 2.56 |
| Cc1cc(C)cc(N2C(=O)Cc3ccccc3C2=O)c1 | 0.39 |
| Cc1cc(C)nc(N2C(=O)Cc3ccccc3C2=O)c1 | 0.51 |
| C[C@@]1(N2C(=O)c3ccc([N+](=O)[O-])cc3C2=O)CCC(=O)NC1=O | 2.63 |
| C[C@@]1(N2C(=O)c3cccc([N+](=O)[O-])c3C2=O)CCC(=O)NC1=O | 0.23 |
| C[C@@]1(N2C(=O)c3cccc(N)c3C2=O)CCC(=O)NC1=O | 11.1 |
| C[C@@]1(N2C(=O)c3ccc(N)cc3C2=O)CCC(=O)NC1=O | < 0.07 |
| Cc1cc(C)cc(N2C(=O)c3ccccc3C2=O)c1 | 2.14 |
| O=C1c2ccccc2C(=O)N1CCn1ccc(=O)[nH]c1=O | 0.44 |

The compounds below were run against T3, Prostaglandin G/H synthase 1 (Ovis aries) (assay: Selective index (SI) which is the ratio of IC50 of Prostaglandin G/H synthase 1 / […]; IN=Inactive).

| Structure (SMILES) | Ratio |
| --- | --- |
| C[C@]1(N2C(=O)c3ccccc3C2=O)CCC(=O)NC1=O | inactive |

From ChEMBL document CHEMBL1135264, “Thalidomide and its analogues as cyclooxygenase inhibitors” (Bioorg Med Chem Lett, 2002)
